Experimental data from ChEMBL document CHEMBL1201862, “PubChem BioAssay data set” (2004).
Active and inactive are the calls of the source.

What was measured:
[1] = inhibitors of firefly luciferase expression or activity, dose response, H4 neuroglioma cells, luminescence (AID 1990); assay type: functional, cell-based
[2] = Luminescence Cell-Based Dose Response HTS to Identify Inhibitors of 5'UTR Stem-Loop Driven Prion Protein mRNA Translation in H4 Neuroglioblastoma Cells. [Related pubchem assays: 1827 (Project Summary), 1813 (Primary HTS)]; assay type: functional
[3] = target: SUMO-activating enzyme (Homo sapiens, UniProt Q9UBT2); assay: SUMOylation inhibitor hit validation, confirmation, SUMOylation inhibitor project, biochemical, AlphaScreen (AID 2018); assay type: functional
Sequence of SUMO-activating enzyme (Q9UBE0 whole entry): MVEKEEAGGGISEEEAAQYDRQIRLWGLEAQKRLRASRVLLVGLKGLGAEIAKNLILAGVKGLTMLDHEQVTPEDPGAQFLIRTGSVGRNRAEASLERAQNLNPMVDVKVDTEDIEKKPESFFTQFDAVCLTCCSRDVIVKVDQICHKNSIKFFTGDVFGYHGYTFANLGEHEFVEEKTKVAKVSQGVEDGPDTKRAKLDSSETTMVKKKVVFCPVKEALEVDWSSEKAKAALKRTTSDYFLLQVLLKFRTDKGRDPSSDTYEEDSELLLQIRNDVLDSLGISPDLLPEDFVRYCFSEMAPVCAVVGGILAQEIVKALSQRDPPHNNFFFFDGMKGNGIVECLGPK
Sequence of SUMO-activating enzyme (Q9UBT2 whole entry): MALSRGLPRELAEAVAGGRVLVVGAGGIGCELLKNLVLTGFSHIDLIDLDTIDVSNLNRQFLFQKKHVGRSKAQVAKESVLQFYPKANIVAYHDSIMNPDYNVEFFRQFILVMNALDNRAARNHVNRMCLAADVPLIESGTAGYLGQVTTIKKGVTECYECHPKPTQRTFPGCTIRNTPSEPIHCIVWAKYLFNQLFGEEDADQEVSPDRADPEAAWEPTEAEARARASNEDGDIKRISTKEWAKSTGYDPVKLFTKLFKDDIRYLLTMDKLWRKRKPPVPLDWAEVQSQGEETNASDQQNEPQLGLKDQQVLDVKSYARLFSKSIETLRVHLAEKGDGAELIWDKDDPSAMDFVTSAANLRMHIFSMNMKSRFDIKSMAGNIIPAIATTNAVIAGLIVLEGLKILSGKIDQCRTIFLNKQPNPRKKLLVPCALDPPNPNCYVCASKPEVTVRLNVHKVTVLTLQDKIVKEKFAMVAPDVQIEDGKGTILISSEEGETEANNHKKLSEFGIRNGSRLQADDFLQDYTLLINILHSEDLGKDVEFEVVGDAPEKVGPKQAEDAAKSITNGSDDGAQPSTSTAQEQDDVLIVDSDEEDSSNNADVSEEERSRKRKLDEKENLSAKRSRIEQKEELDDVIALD

[4] = inhibitors of SNCA 5'UTR-driven reporter translation, confirmation, H4 neuroglioma cells, luminescence (AID 1988); assay type: functional, cell-based
[5] = NIH-3T3 fibroblast cytotoxicity, dose response, cytotoxicity control, cell-based, fluorescence, Alamar Blue, secondary assay (AID 2327); assay type: functional;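 also: NIH-3T3 mouse fibroblasts cultured with fluconazole at 8 µg/mL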
[6] = cells; assay type: functional, cell-based
[7] = C. albicans growth with fluconazole, confirmation, fluorescence, retest (AID 2467); assay type: functional, cell-based
[8] = cells; assay type: functional, cell-based; remark: listed apart in the source
[9] = target: T1, Serine/threonine-protein phosphatase (Candida dubliniensis (strain CD36 / CBS 7987 / NCPF 3949 / NRRLY-17841) (Yeast), UniProt B9W6M3); assay: calcineurin pathway inhibitors in yeast reporter, dose response, S. cerevisiae, CDRE-lacZ, luminescence, secondary (AID 2388); assay type: functional, cell-based;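 also: yeast reporter cells carrying a calcineurin-responsive lacZ construct stimulated with calcium chloride; luminescent beta-galactosidase reporter signal in whole cells rather than isolated phosphatase activity; potency for inhibition where a drop in reporter signal means calcineurin blockade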
T1 sequence (B9W6M3 whole entry): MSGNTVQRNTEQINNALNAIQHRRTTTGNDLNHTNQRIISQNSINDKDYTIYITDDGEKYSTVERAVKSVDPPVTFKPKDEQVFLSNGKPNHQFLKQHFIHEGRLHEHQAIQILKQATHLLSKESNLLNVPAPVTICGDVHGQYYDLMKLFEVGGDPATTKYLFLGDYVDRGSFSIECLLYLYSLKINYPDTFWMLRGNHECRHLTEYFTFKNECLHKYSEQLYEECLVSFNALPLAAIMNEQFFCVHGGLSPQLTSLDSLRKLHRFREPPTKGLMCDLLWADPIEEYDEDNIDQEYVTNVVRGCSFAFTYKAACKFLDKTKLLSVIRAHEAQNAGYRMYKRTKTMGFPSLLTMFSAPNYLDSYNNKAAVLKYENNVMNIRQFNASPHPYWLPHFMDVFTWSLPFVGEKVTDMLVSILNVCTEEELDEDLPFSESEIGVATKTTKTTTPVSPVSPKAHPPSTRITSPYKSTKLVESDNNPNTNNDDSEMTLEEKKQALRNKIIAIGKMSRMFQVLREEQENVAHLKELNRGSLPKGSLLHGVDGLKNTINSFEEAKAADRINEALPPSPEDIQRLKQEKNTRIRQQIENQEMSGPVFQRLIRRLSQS

[10] = THP-1 cell cytotoxicity, dose response, cytotoxicity control for non-replicating M. tuberculosis project (AID 489025); assay type: functional
[11] = HepG2 cell cytotoxicity, dose response, cytotoxicity control for non-replicating M. tuberculosis project (AID 489018); assay type: functional; details: Mycobacterium tuberculosis
[12] = Vero E6 cell cytotoxicity, dose response, cytotoxicity control for non-replicating M. tuberculosis project, secondary assay (AID 492998); assay type: functional, VeroE6; details: Vero C1008
[13] = system: INS1; assay: beta cell apoptosis inhibitors, cytokine rescue, dose response, luminescence, retest (AID 449756); assay type: functional, cell-based; details: Rattus norvegicus;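 also: cell death triggered by IL-1 beta plus TNF-alpha plus IFN-gamma mixture; protective hits raise ATP signal compared with cytokine alone wells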
[14] = target: ATP-dependent molecular chaperone HSP82 (Candida albicans (strain WO-1) (Yeast), UniProt C4YTQ8); assay: loss of DOC-induced GRE-beta-galactosidase reporter signal, dose response, Hsp90 inhibitor project, S. cerevisiae, luminescence (AID 2400); assay type: functional, cell-based;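 also: beta-galactosidase luminescence from glucocorticoid response element reporter as proxy for Hsp90 function; inhibitor potency where signal loss means Hsp90 inhibition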
Sequence of ATP-dependent molecular chaperone HSP82 (C4YTQ8 whole entry): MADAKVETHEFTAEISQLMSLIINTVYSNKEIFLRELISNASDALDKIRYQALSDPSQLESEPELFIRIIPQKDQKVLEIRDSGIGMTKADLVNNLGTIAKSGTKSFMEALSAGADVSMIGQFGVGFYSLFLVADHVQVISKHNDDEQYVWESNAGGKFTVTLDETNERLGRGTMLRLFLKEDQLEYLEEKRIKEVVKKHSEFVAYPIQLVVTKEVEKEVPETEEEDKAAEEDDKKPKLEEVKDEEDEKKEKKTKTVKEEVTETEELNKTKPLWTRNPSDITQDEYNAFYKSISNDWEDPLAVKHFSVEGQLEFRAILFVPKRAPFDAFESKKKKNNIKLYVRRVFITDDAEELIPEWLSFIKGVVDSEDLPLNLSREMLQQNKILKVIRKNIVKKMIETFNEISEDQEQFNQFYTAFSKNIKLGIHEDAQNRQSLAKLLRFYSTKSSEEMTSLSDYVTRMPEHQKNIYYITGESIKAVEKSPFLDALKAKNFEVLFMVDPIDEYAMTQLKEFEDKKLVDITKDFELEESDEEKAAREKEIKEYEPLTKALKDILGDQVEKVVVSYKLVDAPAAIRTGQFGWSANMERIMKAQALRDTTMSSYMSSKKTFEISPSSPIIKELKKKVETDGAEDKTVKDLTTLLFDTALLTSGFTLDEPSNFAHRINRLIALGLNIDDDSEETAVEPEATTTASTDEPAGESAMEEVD

[15] = system: CHO-K1; assay: (§1) Counterscreen for antagonists of the orexin 1 receptor (OX1R; HCRTR1): Homogeneous time resolved fluorescence (HTRF)-based cell-based dose response assay to identify antagonists of the parental CHO-K1 cell line. [Related pubchem assays (depositor defined):AID434989, AID435008, AID463079, AID485270, AID492963, AID492964, AID492965, AID493232, AID504699, AID504701]; assay type: functional; details: Cricetulus griseus
[16] = as §1, with “Fluorescence-based” for “Homogeneous time resolved fluorescence (HTRF)-based”, “cell-based high throughput” for “cell-based”, “CHO” for “CHO-K1”; assay type: functional
[17] = target: T2, Orexin/Hypocretin receptor type 1 (Homo sapiens, UniProt O43613); assay: Homogeneous Time Resolved Fluorescence (HTRF)-based cell-based high throughput dose response assay for antagonists of the orexin 1 receptor (OX1R; HCRTR1). [Related pubchem assays (depositor defined):AID434989, AID435008, AID463079, AID485270, AID492963, AID492964, AID492965, AID493232, AID504717, AID504718]; assay type: functional
T2 sequence (O43613 whole entry): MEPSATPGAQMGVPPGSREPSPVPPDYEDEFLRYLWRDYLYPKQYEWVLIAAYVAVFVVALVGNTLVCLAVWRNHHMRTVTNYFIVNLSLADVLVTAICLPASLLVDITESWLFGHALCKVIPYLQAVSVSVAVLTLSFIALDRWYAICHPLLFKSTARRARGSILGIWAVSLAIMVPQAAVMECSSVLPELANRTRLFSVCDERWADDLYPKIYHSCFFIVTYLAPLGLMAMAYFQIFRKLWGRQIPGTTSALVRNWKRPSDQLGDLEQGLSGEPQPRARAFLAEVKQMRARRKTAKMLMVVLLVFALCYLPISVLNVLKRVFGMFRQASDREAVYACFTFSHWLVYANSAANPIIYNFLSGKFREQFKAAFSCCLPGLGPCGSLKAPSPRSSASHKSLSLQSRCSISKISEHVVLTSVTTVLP

[18] = target: T2, Orexin/Hypocretin receptor type 1; assay: Fluorescence-based cell-based high throughput dose response assay for antagonists of the orexin 1 receptor (OX1R; HCRTR1). [Related pubchem assays (depositor defined):AID434989, AID435008, AID463079, AID485270, AID492963, AID492964, AID492965, AID493232, AID504717, AID504718]; assay type: functional
[19] = target: T3, Orexin receptor type 2 (Homo sapiens, UniProt O43614); assay: Counterscreen assay for antagonists of the orexin 1 receptor (OX1R; HCRTR1): Fluorescence-based cell-based dose response assay for antagonists of the orexin 2 receptor (OX2R; HCRTR2), run by assay provider.; assay type: functional
T3 sequence (O43614 whole entry): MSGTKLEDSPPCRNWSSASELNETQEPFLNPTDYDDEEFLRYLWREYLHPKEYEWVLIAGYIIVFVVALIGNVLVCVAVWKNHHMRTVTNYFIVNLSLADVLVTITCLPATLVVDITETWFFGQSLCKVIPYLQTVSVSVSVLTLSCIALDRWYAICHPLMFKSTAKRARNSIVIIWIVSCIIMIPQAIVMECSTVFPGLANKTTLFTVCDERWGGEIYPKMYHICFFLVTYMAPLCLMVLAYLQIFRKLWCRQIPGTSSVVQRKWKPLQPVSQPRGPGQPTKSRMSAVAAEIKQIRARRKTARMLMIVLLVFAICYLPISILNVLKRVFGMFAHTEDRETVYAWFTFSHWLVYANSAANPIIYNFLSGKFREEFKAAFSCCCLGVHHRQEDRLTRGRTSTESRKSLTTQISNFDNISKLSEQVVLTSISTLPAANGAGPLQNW

[20] = target: T3, Orexin receptor type 2; assay: Counterscreen assay for antagonists of the orexin 1 receptor (OX1R; HCRTR1): Homogeneous Time Resolved Fluorescence (HTRF)-based cell-based dose response assay for antagonists of the orexin 2 receptor (OX2R; HCRTR2), run by assay provider.; assay type: functional
[21] = target: Signal transducer and activator of transcription 3 (Homo sapiens, UniProt P40763); assay: STAT3 inhibitors, late-stage profile, late-stage follow-up, cell-based, STAT1 panel, qPCR, cytotoxicity, panel member STAT3 Inhibition (AID 2078)
Sequence of Signal transducer and activator of transcription 3 (P40763 whole entry): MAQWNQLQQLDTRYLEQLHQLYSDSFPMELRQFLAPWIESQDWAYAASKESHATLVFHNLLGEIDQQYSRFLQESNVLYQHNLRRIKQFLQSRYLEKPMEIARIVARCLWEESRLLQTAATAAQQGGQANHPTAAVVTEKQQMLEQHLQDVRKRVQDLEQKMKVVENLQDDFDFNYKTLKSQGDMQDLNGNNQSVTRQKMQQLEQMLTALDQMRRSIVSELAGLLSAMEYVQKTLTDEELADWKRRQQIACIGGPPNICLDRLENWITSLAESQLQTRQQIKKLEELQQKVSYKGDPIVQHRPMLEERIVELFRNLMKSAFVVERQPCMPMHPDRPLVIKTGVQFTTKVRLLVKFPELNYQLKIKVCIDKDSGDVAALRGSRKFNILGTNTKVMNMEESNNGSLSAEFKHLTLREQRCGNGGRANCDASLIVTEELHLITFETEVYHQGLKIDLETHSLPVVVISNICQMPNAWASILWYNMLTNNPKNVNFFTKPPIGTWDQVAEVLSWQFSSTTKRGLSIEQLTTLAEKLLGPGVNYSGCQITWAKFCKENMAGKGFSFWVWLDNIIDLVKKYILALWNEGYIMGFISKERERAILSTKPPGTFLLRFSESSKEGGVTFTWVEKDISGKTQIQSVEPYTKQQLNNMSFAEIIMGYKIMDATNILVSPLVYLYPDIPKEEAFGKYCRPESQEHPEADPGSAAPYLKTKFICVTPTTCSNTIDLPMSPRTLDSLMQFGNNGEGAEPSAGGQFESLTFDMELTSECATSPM

[22] = target: Signal transducer and activator of transcription 1-alpha/beta (Homo sapiens, UniProt P42224); assay: STAT3 inhibitors, late-stage profile, late-stage follow-up, cell-based, STAT1 panel, qPCR, cytotoxicity, panel member STAT1 Inhibition (AID 2078)
Sequence of Signal transducer and activator of transcription 1-alpha/beta (P42224 whole entry): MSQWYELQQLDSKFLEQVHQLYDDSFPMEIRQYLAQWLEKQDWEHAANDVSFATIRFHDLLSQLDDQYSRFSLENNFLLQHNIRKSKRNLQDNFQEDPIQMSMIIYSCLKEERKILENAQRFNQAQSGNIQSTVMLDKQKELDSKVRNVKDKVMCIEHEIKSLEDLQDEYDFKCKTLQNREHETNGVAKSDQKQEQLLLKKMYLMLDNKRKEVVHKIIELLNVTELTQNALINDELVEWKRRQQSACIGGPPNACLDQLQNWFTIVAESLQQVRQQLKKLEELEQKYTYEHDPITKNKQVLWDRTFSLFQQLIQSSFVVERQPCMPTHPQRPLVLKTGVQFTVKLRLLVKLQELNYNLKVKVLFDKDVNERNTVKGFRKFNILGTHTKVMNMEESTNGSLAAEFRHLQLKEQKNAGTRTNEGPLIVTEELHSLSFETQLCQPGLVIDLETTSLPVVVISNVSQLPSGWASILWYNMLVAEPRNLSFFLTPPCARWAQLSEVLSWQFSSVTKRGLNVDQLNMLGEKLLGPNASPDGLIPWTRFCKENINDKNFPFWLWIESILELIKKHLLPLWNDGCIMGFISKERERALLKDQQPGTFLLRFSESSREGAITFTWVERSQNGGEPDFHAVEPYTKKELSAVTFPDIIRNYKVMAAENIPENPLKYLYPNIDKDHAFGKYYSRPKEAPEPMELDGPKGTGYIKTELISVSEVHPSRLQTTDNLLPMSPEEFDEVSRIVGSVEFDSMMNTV

SMILES: C=CCn1c(N)c(C(=O)Nc2ccccc2)c2nc3ccccc3nc21
- EC50 [1]: 22 µM (active)
- EC50 [2]: > 120 µM (not active)
- IC50 [3]: 14.5 µM (active)
- EC50 [4]: > 120 µM (not active)

SMILES: O=C(N/N=C/c1ccccc1O)c1cccc(C(F)(F)F)c1
- EC50 [5]: > 150 µM (inactive)
- EC50 [6]: 7.53 µM (active)
- EC50 [7]: 1.39 µM (active)
- EC50 [8]: > 350 µM (not active)
- EC50 [9]: > 180 µM (inactive)
- CC50 [10]: 0.106 µM (active)
- CC50 [11]: 6.7 µM (active)
- CC50 [12]: 3.65 µM (active)
- AC50 [13]: 1.11 µM (active)
- EC50 [14]: > 150 µM (inactive)

SMILES: COc1ccc2c(c1)nc(O)c1sc3ccccc3c12
- IC50 [15]: > 66.2 µM (inactive)
- IC50 [16]: > 49.7 µM (inactive)
- IC50 [17]: 2.49 µM (active)
- IC50 [18]: 7.77 µM (active)
- IC50 [19]: 5.5 µM (active)
- IC50 [20]: > 50 µM (inactive)

SMILES: COC(=O)c1cc2c(N3CCC(Cc4ccccc4)CC3)ncnc2s1
- IC50 [21]: > 18.6 µM (inactive)
- IC50 [22]: > 55.7 µM (inactive)
